Values of other authors in patent US20230346989A1, “FLUOROCARBON NANOEMULSIONS AND USES THEREOF IN IMAGING” (The Regents of the University of California, priority 2020, published 2023).

Experiments:
[1] = in vivo; cited from earlier work
[2] = test system: tumors; conditions: depending on the model; cited from earlier work

SMILES | organ-retention half-life [1] | suppression of tumor growth [2]
FC(F)(F)C(F)(F)C(F)(F)C(F)(F)C(F)(F)C(F)(F)C(F)(F)C(F)(F)Br [PFOB, perfluorooctyl bromide] | 122 h | –
C[C@H](NC(=O)c1c(N)nn2cccnc12)c1cc2cccc(C#Cc3cnn(C)c3)c2c(=O)n1-c1ccccc1 [IPI549] | – | 50-100%
